Results on one molecule are retold here after publication PMC5218480 (PLoS ONE, 2017).

This test relates to MV-4-11 cells. The test is described as follows: Gene expression microarray analysis (Affymetrix PrimeView) and GSEA. Type of test: cell-based, human. Further details: RFU PODN (11730768_x_at) / Fold change /veh PODN (11730768_x_at) / RFU LINC00158 (11744669_a_at) / Fold change /veh LINC00158 (11744669_a_at) / RFU DUSP10 (11751237_a_at) / Fold change /veh DUSP10 (11751237_a_at) / RFU ID3 (11757404_x_at) / Fold change /veh ID3 (11757404_x_at) / RFU PLEKHG5 (11737974_s_at) / Fold change /veh PLEKHG5 (11737974_s_at) / RFU LRRC4B (11730491_at) / Fold change /veh LRRC4B (11730491_at) / RFU GIMAP4 (11747438_a_at) / Fold change /veh GIMAP4 (11747438_a_at) / RFU KRT8 (11758183_x_at) / Fold change /veh KRT8 (11758183_x_at) / RFU CNN1 (11734310_a_at) / Fold change /veh CNN1 (11734310_a_at) / RFU VPS37D (11726825_at) / Fold change /veh VPS37D (11726825_at) / RFU C10orf10 (11716522_x_at) / Fold change /veh C10orf10 (11716522_x_at) / RFU KIR2DL2 /// KIR2DL4 /// KIR2DL5A /// KIR2DL5B /// KIR2DS1 /// KIR2DS2 /// KIR2DS3 /// KIR2DS4 /// KIR3DL3 /// KIR3DL3 /// KIR3DS1 (11738374_at) / Fold change /veh KIR2DL2 /// KIR2DL4 /// KIR2DL5A /// KIR2DL5B /// KIR2DS1 /// KIR2DS2 /// KIR2DS3 /// KIR2DS4 /// KIR3DL3 /// KIR3DL3 /// KIR3DS1 (11738374_at) / RFU C1QL1 (11718748_at) / Fold change /veh C1QL1 (11718748_at) / RFU TMPRSS4 (11747572_a_at) / Fold change /veh TMPRSS4 (11747572_a_at) / RFU HAMP (11756126_x_at) / Fold change /veh HAMP (11756126_x_at) / RFU RNFT2 (11725882_a_at) / Fold change /veh RNFT2 (11725882_a_at) / RFU NR4A2 (11747474_a_at) / Fold change /veh NR4A2 (11747474_a_at) / RFU ABCC12 (11746883_a_at) / Fold change /veh ABCC12 (11746883_a_at) / RFU TMEM136 (11760407_x_at) / Fold change /veh TMEM136 (11760407_x_at) / RFU CLDN22 /// WWC2 (11732394_at) / Fold change /veh CLDN22 /// WWC2 (11732394_at) / RFU HLA-DPB1 (11760878_x_at) / Fold change /veh HLA-DPB1 (11760878_x_at) / RFU SPINT1 (11716480_a_at) / Fold change /veh SPINT1 (11716480_a_at) / RFU GAP43 (11754022_s_at) / Fold change /veh GAP43 (11754022_s_at) / RFU A4GNT (11735810_at) / Fold change /veh A4GNT (11735810_at) / RFU PRB3 (11715151_x_at) / Fold change /veh PRB3 (11715151_x_at) / RFU TUBB4B (11761932_at) / Fold change /veh TUBB4B (11761932_at) / RFU CAPN14 (11732068_a_at) / Fold change /veh CAPN14 (11732068_a_at) / RFU TMCC2 (11721928_a_at) / Fold change /veh TMCC2 (11721928_a_at) / RFU IRGQ (11745062_a_at) / Fold change /veh IRGQ (11745062_a_at) / RFU FAM174B (11720279_a_at) / Fold change /veh FAM174B (11720279_a_at) / RFU TMPRSS4 (11748680_a_at) / Fold change /veh TMPRSS4 (11748680_a_at) / RFU FAM212B (11763350_a_at) / Fold change /veh FAM212B (11763350_a_at) / RFU PLEKHG5 (11743358_a_at) / Fold change /veh PLEKHG5 (11743358_a_at) / RFU ZSCAN30 (11745921_a_at) / Fold change /veh ZSCAN30 (11745921_a_at) / RFU CMKLR1 (11741424_a_at) / Fold change /veh CMKLR1 (11741424_a_at) / RFU LOC101060620 /// MAPK8IP1 (11723275_at) / Fold change /veh LOC101060620 /// MAPK8IP1 (11723275_at) / RFU SPTSSB (11747773_x_at) / Fold change /veh SPTSSB (11747773_x_at) / RFU PRSS12 (11739890_at) / Fold change /veh PRSS12 (11739890_at) / RFU BIN1 (11741810_x_at) / Fold change /veh BIN1 (11741810_x_at) / RFU WNT11 (11732464_a_at) / Fold change /veh WNT11 (11732464_a_at) / RFU C10orf10 (11716521_a_at) / Fold change /veh C10orf10 (11716521_a_at) / RFU C5orf56 (11738089_at) / Fold change /veh C5orf56 (11738089_at) / RFU CYB561 (11721691_x_at) / Fold change /veh CYB561 (11721691_x_at) / RFU ANKRD19P (11752326_a_at) / Fold change /veh ANKRD19P (11752326_a_at) / RFU OR2T12 /// OR2T33 /// OR2T8 (11738714_s_at) / Fold change /veh OR2T12 /// OR2T33 /// OR2T8 (11738714_s_at) / RFU VCAN (11748164_a_at) / Fold change /veh VCAN (11748164_a_at) / RFU JSRP1 (11732532_at) / Fold change /veh JSRP1 (11732532_at) / RFU KRTAP10-11 (11738290_x_at) / Fold change /veh KRTAP10-11 (11738290_x_at) / RFU MYO3A (11730013_a_at) / Fold change /veh MYO3A (11730013_a_at) / RFU EBF3 (11725865_a_at) / Fold change /veh EBF3 (11725865_a_at) / RFU CAMK2N1 (11719241_x_at) / Fold change /veh CAMK2N1 (11719241_x_at) / RFU C5orf56 (11738088_a_at) / Fold change /veh C5orf56 (11738088_a_at) / RFU OLFML3 (11715873_a_at) / Fold change /veh OLFML3 (11715873_a_at) / RFU LOC100653217 /// NTM (11731650_a_at) / Fold change /veh LOC100653217 /// NTM (11731650_a_at) / RFU MAPK11 (11762145_a_at) / Fold change /veh MAPK11 (11762145_a_at) / RFU FIZ1 (11724087_x_at) / Fold change /veh FIZ1 (11724087_x_at) / RFU OASL (11726364_x_at) / Fold change /veh OASL (11726364_x_at) / RFU SOX15 (11748057_x_at) / Fold change /veh SOX15 (11748057_x_at) / RFU CD79A (11719716_a_at) / Fold change /veh CD79A (11719716_a_at) / RFU HIST1H1D (11736915_at) / Fold change /veh HIST1H1D (11736915_at) / RFU CASKIN2 (11723855_a_at) / Fold change /veh CASKIN2 (11723855_a_at) / RFU LOC730098 (11760151_x_at) / Fold change /veh LOC730098 (11760151_x_at) / RFU OR4N2 (11742367_at) / Fold change /veh OR4N2 (11742367_at) / RFU PRRT2 (11749266_a_at) / Fold change /veh PRRT2 (11749266_a_at) / RFU SNX32 (11753110_a_at) / Fold change /veh SNX32 (11753110_a_at) / RFU CDHR5 (11726645_a_at) / Fold change /veh CDHR5 (11726645_a_at) / RFU RCAN1 (11760418_a_at) / Fold change /veh RCAN1 (11760418_a_at) / RFU FAM167A (11723789_a_at) / Fold change /veh FAM167A (11723789_a_at) / RFU FAM26E (11764081_at) / Fold change /veh FAM26E (11764081_at) / RFU ISYNA1 (11749810_s_at) / Fold change /veh ISYNA1 (11749810_s_at) / RFU ACY1 (11761880_at) / Fold change /veh ACY1 (11761880_at) / RFU 11764098_at / Fold change /veh 11764098_at / RFU SAMD14 (11745864_x_at) / Fold change /veh SAMD14 (11745864_x_at) / RFU NPB (11741838_a_at) / Fold change /veh NPB (11741838_a_at) / RFU TMPRSS6 (11731388_a_at) / Fold change /veh TMPRSS6 (11731388_a_at) / RFU KRTAP10-2 (11738614_at) / Fold change /veh KRTAP10-2 (11738614_at) / RFU ARHGAP8 /// PRR5-ARHGAP8 (11727945_x_at) / Fold change /veh ARHGAP8 /// PRR5-ARHGAP8 (11727945_x_at) / RFU KRTAP5-7 /// NADSYN1 (11734609_at) / Fold change /veh KRTAP5-7 /// NADSYN1 (11734609_at) / RFU RASL12 (11751679_a_at) / Fold change /veh RASL12 (11751679_a_at) / RFU CDKN2B (11736163_a_at) / Fold change /veh CDKN2B (11736163_a_at) / RFU PRF1 (11729649_at) / Fold change /veh PRF1 (11729649_at) / RFU, ZNF638 /// ZNF638-IT1 / Fold change vs veh, ZNF638 /// ZNF638-IT1 / RFU, PANK3 / Fold change vs veh, PANK3 / RFU, SH3YL1 / Fold change vs veh, SH3YL1 / RFU, ZEB2 / Fold change vs veh, ZEB2 / RFU, NRIP1 / Fold change vs veh, NRIP1 / RFU, PTTG1IP / Fold change vs veh, PTTG1IP / RFU, CAPN2 / Fold change vs veh, CAPN2 / RFU, MED14 / Fold change vs veh, MED14 / RFU, SNORA58 / Fold change vs veh, SNORA58 / RFU, C1orf63 / Fold change vs veh, C1orf63 / RFU, LRRFIP1 / Fold change vs veh, LRRFIP1 / RFU, NDUFAF7 / Fold change vs veh, NDUFAF7 / RFU, SLC12A2 / Fold change vs veh, SLC12A2 / RFU, IBTK / Fold change vs veh, IBTK / RFU, ESF1 / Fold change vs veh, ESF1 / Fold change vs veh, TMEM50B / RFU, TAOK1 / Fold change vs veh, TAOK1 / RFU, ACBD3 / Fold change vs veh, ACBD3 / RFU, TMA16 / Fold change vs veh, TMA16 / RFU, RWDD3 / Fold change vs veh, RWDD3 / RFU, BCAT1 / Fold change vs veh, BCAT1 / RFU, EDEM3 / Fold change vs veh, EDEM3 / RFU, TMEM33 / Fold change vs veh, TMEM33 / RFU, WDR75 / Fold change vs veh, WDR75 / RFU, AHCTF1 / Fold change vs veh, AHCTF1 / RFU, TFRC / Fold change vs veh, TFRC / RFU, ZDHHC17 / Fold change vs veh, ZDHHC17 / RFU, NOM1 / Fold change vs veh, NOM1 / RFU, ARL8B / Fold change vs veh, ARL8B / RFU, ZBTB11 / Fold change vs veh, ZBTB11 / RFU, TAMM41 / Fold change vs veh, TAMM41 / RFU, KIAA1704 /// LOC100996395 / Fold change vs veh, KIAA1704 /// LOC100996395 / RFU, ING1 / Fold change vs veh, ING1 / RFU, TRMT61B / Fold change vs veh, TRMT61B / RFU, FUBP3 / Fold change vs veh, FUBP3 / RFU, TP53 / Fold change vs veh, TP53 / RFU, TNKS2 / Fold change vs veh, TNKS2 / RFU, ZFP14 / Fold change vs veh, ZFP14 / RFU, ACTR2 / Fold change vs veh, ACTR2 / RFU, PPP3R1 / Fold change vs veh, PPP3R1 / RFU, PIK3R1 / Fold change vs veh, PIK3R1 / RFU, HNRNPA1 / Fold change vs veh, HNRNPA1 / RFU, RNF170 / Fold change vs veh, RNF170 / RFU, ZNF28 / Fold change vs veh, ZNF28 / RFU, RNGTT / Fold change vs veh, RNGTT / RFU, OGT / Fold change vs veh, OGT / RFU, BRD1 / Fold change vs veh, BRD1 / RFU, MARS / Fold change vs veh, MARS / RFU, ZNF655 / Fold change vs veh, ZNF655 / RFU, FAHD1 / Fold change vs veh, FAHD1 / RFU, BDP1 / Fold change vs veh, BDP1 / RFU, LRRCC1 / Fold change vs veh, LRRCC1 / RFU, ARID1A / Fold change vs veh, ARID1A / RFU, ZNF146 / Fold change vs veh, ZNF146 / RFU, ZNF330 / Fold change vs veh, ZNF330 / RFU, GPN3 / Fold change vs veh, GPN3 / RFU, C9orf123 / Fold change vs veh, C9orf123 / RFU, N4BP2L2 / Fold change vs veh, N4BP2L2 / RFU, ARFIP1 / Fold change vs veh, ARFIP1 / RFU, FAM179B / Fold change vs veh, FAM179B / RFU, BCL10 / Fold change vs veh, BCL10 / RFU, UHRF1BP1L / Fold change vs veh, UHRF1BP1L / RFU, BET1 / Fold change vs veh, BET1 / RFU, CNOT2 / Fold change vs veh, CNOT2 / RFU, ZNF268 / Fold change vs veh, ZNF268 / Fold change vs veh, ZNF507 / RFU, DGCR2 / Fold change vs veh, DGCR2 / RFU, WDSUB1 / Fold change vs veh, WDSUB1 / Fold change vs veh, HSP90B1 /// MIR3652 / RFU, ADSS / Fold change vs veh, ADSS / RFU, GK / Fold change vs veh, GK / RFU, ZNF148 / Fold change vs veh, ZNF148 / RFU, TAF9 / Fold change vs veh, TAF9 / RFU, SLC1A5 / Fold change vs veh, SLC1A5 / RFU, SLMO2 / Fold change vs veh, SLMO2 / RFU, ABCC4 / Fold change vs veh, ABCC4 / RFU, LOC101060439 /// RAP1B / Fold change vs veh, LOC101060439 /// RAP1B / RFU, RFX7 / Fold change vs veh, RFX7 / RFU, GTPBP10 / Fold change vs veh, GTPBP10 / RFU, CNEP1R1 / Fold change vs veh, CNEP1R1 / RFU, BIVM-ERCC5 /// ERCC5 / Fold change vs veh, BIVM-ERCC5 /// ERCC5 / RFU, ILF3 / Fold change vs veh, ILF3 / RFU 11762660_at / Fold change /veh 11762660_at / RFU VCAN (11757783_s_at) / Fold change /veh VCAN (11757783_s_at) / RFU DDX43 (11728927_at) / Fold change /veh DDX43 (11728927_at) / RFU KRT8 (11758188_x_at) / Fold change /veh KRT8 (11758188_x_at) / RFU NKD1 (11759106_at) / Fold change /veh NKD1 (11759106_at) / RFU SRD5A1 (11742802_a_at) / Fold change /veh SRD5A1 (11742802_a_at) / RFU TPSAB1 /// TPSB2 (11721975_s_at) / Fold change /veh TPSAB1 /// TPSB2 (11721975_s_at) / RFU GSTM3 (11746129_a_at) / Fold change /veh GSTM3 (11746129_a_at) / RFU IL23R (11737362_x_at) / Fold change /veh IL23R (11737362_x_at) / RFU TMEM51 (11727254_a_at) / Fold change /veh TMEM51 (11727254_a_at) / RFU PIWIL2 (11732686_x_at) / Fold change /veh PIWIL2 (11732686_x_at) / RFU ORM1 (11744905_x_at) / Fold change /veh ORM1 (11744905_x_at) / RFU CCDC152 (11743942_at) / Fold change /veh CCDC152 (11743942_at) / RFU ECM1 (11717891_a_at) / Fold change /veh ECM1 (11717891_a_at) / RFU IL23R (11748794_a_at) / Fold change /veh IL23R (11748794_a_at) / RFU TNFAIP8L3 (11732012_x_at) / Fold change /veh TNFAIP8L3 (11732012_x_at) / RFU MBOAT4 (11741988_at) / Fold change /veh MBOAT4 (11741988_at) / RFU 11764193_at / Fold change /veh 11764193_at / RFU TMEM53 (11763286_at) / Fold change /veh TMEM53 (11763286_at) / RFU MAGEB2 (11727129_at) / Fold change /veh MAGEB2 (11727129_at) / RFU TMEM200A (11744735_a_at) / Fold change /veh TMEM200A (11744735_a_at) / RFU CCDC152 (11751479_a_at) / Fold change /veh CCDC152 (11751479_a_at) / RFU FAM211A (11726209_a_at) / Fold change /veh FAM211A (11726209_a_at) / RFU RGS16 (11746705_a_at) / Fold change /veh RGS16 (11746705_a_at) / RFU VCAN (11755009_s_at) / Fold change /veh VCAN (11755009_s_at) / RFU RHOB (11743442_s_at) / Fold change /veh RHOB (11743442_s_at) / RFU RGS16 (11720943_a_at) / Fold change /veh RGS16 (11720943_a_at) / RFU RGS16 (11720944_at) / Fold change /veh RGS16 (11720944_at) / RFU, VPS4B / Fold change vs veh, VPS4B / RFU, CREB1 / Fold change vs veh, CREB1 / RFU, DNAJC13 / Fold change vs veh, DNAJC13 / RFU, GNAQ / Fold change vs veh, GNAQ / RFU, CDK5R1 / Fold change vs veh, CDK5R1 / RFU, ZRANB3 / Fold change vs veh, ZRANB3 / RFU, CUL4A / Fold change vs veh, CUL4A / RFU, CCNY / Fold change vs veh, CCNY / RFU, UFL1 / Fold change vs veh, UFL1 / RFU, COG3 / Fold change vs veh, COG3 / RFU, DIAPH2 / Fold change vs veh, DIAPH2 / RFU, SKA2 / Fold change vs veh, SKA2 / RFU, AFF3 / Fold change vs veh, AFF3 / RFU, LMF1 / Fold change vs veh, LMF1 / RFU, IPO11 / Fold change vs veh, IPO11 / RFU, DFFB / Fold change vs veh, DFFB / RFU, FOXP1 / Fold change vs veh, FOXP1 / RFU, CARD8 / Fold change vs veh, CARD8 / RFU, STRN3 / Fold change vs veh, STRN3 / RFU, ADK / Fold change vs veh, ADK / RFU, RASSF2 / Fold change vs veh, RASSF2 / RFU, WIPF1 / Fold change vs veh, WIPF1 / RFU, LARP1B / Fold change vs veh, LARP1B / RFU, RASA1 / Fold change vs veh, RASA1 / RFU, RB1 / Fold change vs veh, RB1 / RFU, PPFIA1 / Fold change vs veh, PPFIA1 / RFU, MAT2A / Fold change vs veh, MAT2A / RFU, CCT5 / Fold change vs veh, CCT5 / RFU, WDR92 / Fold change vs veh, WDR92 / RFU, CUX1 / Fold change vs veh, CUX1 / RFU, TTC7A / Fold change vs veh, TTC7A / RFU, TMEM135 / Fold change vs veh, TMEM135 / RFU, DEPTOR / Fold change vs veh, DEPTOR / RFU, CPM / Fold change vs veh, CPM / RFU, DNAJB6 / Fold change vs veh, DNAJB6 / RFU, CACNA2D3 / Fold change vs veh, CACNA2D3 / RFU, DTX4 / Fold change vs veh, DTX4 / RFU, TFCP2 / Fold change vs veh, TFCP2 / RFU, GMCL1 /// GMCL1P1 / Fold change vs veh, GMCL1 /// GMCL1P1 / RFU, AEBP2 / Fold change vs veh, AEBP2 / RFU, SNHG1 /// SNORD22 /// SNORD25 /// SNORD26 /// SNORD27 /// SNORD28 /// SNORD29 /// SNORD31 / Fold change vs veh, SNHG1 /// SNORD22 /// SNORD25 /// SNORD26 /// SNORD27 /// SNORD28 /// SNORD29 /// SNORD31 / Fold change (Aza/veh), C12orf56 (ProbeSet 11735607_a_at) / Fold change (ACY-1035/veh), C12orf56 (ProbeSet 11735607_a_at) / Fold change (Aza/veh), FGFR1OP (ProbeSet 11751329_s_at) / Fold change (ACY-1035/veh), FGFR1OP (ProbeSet 11751329_s_at) / Fold change (Aza/veh), VPS36 (ProbeSet 11739960_a_at) / Fold change (ACY-1035/veh), VPS36 (ProbeSet 11739960_a_at) / RFU SYPL1 (11715823_x_at) / Fold change /veh SYPL1 (11715823_x_at) / RFU IGFBP7 (11715501_s_at) / Fold change /veh IGFBP7 (11715501_s_at) / RFU REEP3 (11722064_at) / Fold change /veh REEP3 (11722064_at) / RFU IGLL1 (11728026_x_at) / Fold change /veh IGLL1 (11728026_x_at): dose or concentration left out as unconfirmed. Conditions: ProbeSet 11763895_x_at; LIST B.

For the molecule `Nc1ncn([C@@H]2O[C@H](CO)[C@@H](O)[C@H]2O)c(=O)n1` [azacitidine], the “RFU, SNORA58” value is given as 17.25 RFU.
